Experiments:
Type in all cases: toxicity, cell-based
U2OS = assay: Incucyte cell viability with U2OS; conditions: human, 10 µM, compound concentration 10 uM
HEK-293T = assay: Incucyte cell viability with HEK293T; conditions: human, 10 µM, compound concentration 10 uM
Fibroblast = assay: Incucyte cell viability with human fibroblast; conditions: 10 µM, compound concentration 10 uM
[1] = 0 h, replicate number 1, timepoint 0 hours
[2] = 0 h, replicate number 2, timepoint 0 hours
[3] = 6 h, replicate number 1, timepoint 6 hours
[4] = 12 h, replicate number 1, timepoint 12 hours
[5] = 18 h, replicate number 1, timepoint 18 hours
[6] = 24 h, replicate number 1, timepoint 24 hours
[7] = 24 h, replicate number 2, timepoint 24 hours
[8] = 6 h, replicate number 2, timepoint 6 hours
[9] = 12 h, replicate number 2, timepoint 12 hours
[10] = 18 h, replicate number 2, timepoint 18 hours
Further: filed as whole numbers so only -1 and 0 and 1 occur.

Compound | Growth Rate (U2OS; [1]) | Growth Rate (U2OS; [3]) | Growth Rate (U2OS; [4]) | Growth Rate (U2OS; [5]) | Growth Rate (U2OS; [6]) | Growth Rate (HEK-293T; [1]) | Growth Rate (HEK-293T; [3]) | Growth Rate (HEK-293T; [4]) | Growth Rate (HEK-293T; [5]) | Growth Rate (HEK-293T; [6]) | Growth Rate (HEK-293T; [7]) | Growth Rate (Fibroblast; [1]) | Growth Rate (Fibroblast; [8]) | Growth Rate (Fibroblast; [4]) | Growth Rate (Fibroblast; [5]) | Growth Rate (Fibroblast; [6]) | Growth Rate (U2OS; [8]) | Growth Rate (U2OS; [10]) | Growth Rate (Fibroblast; [10]) | Growth Rate (HEK-293T; [2]) | also measured
O=C(NNS(=O)(=O)c1ccccc1)c1cc(-c2ccnnc2)ccc1F [WM-2474] | 1 | 0 | 0 | 0 | 1 | 0 | 1 | 1 | 1 | 0 | 1 | 0 | 0 | 1 | 1 | 1 | – | – | – | – | Growth Rate (U2OS; [2]): 0; Growth Rate (U2OS; [7]): 0
CCN1CCC[C@H]1CNC(=O)c1c(OC)ccc(Br)c1OC [REMOXIPRIDE] | – | – | 0 | 0 | 0 | 0 | 1 | 1 | 1 | 1 | – | 0 | 0 | – | 1 | 1 | 1 | 1 | 0 | – | Growth Rate (U2OS; [9]): 1; Growth Rate (U2OS; [7]): 1; Growth Rate (Fibroblast; [9]): 0; Growth Rate (Fibroblast; [7]): 0
Cn1cc(Cl)c2c(Oc3c(F)cc(Nc4cc(Cl)nc(N)n4)cc3F)ccnc21 [BAY-4900] | 1 | 1 | 1 | 0 | 1 | 0 | – | – | 1 | 1 | 0 | 0 | 0 | – | – | 1 | – | 1 | 1 | – | Growth Rate (U2OS; [2]): 0; Growth Rate (HEK-293T; [8]): 0; Growth Rate (HEK-293T; [9]): 0; Growth Rate (HEK-293T; [10]): 0; Growth Rate (Fibroblast; [9]): 1
CCOP(=O)(OCC)C(=Cc1cc(C(C)(C)C)c(O)c(C(C)(C)C)c1)P(=O)(OCC)OCC | 1 | – | 0 | 0 | 0 | 0 | – | 0 | 0 | 0 | – | – | – | 0 | 0 | 0 | 0 | – | 1 | – | Growth Rate (U2OS; [2]): 0; Growth Rate (HEK-293T; [8]): 0; Growth Rate (Fibroblast; [3]): 0
O=C(O)[C@H]1[C@H](Cn2nnc3ccccc3c2=O)CC[C@@H]1C(=O)c1ccc(OCCC2CCOCC2)cc1 [BAY-7598] | – | 1 | 1 | 0 | 1 | 0 | – | 1 | 1 | 1 | – | 0 | – | 1 | 1 | 1 | – | 1 | – | 1 | Growth Rate (U2OS; [2]): 0; Growth Rate (U2OS; [9]): 0; Growth Rate (HEK-293T; [8]): 1; Growth Rate (Fibroblast; [3]): 1
CC(C)(O)c1cncc(-c2nc3ccc(F)cc3n2C2CC2)c1 [MSD-CYP11B2] | 0 | 0 | 0 | 0 | 1 | 0 | – | 0 | 0 | 0 | – | – | 0 | 1 | 1 | – | 1 | 1 | 0 | 1 | Growth Rate (U2OS; [9]): 1; Growth Rate (HEK-293T; [10]): 1; Growth Rate (Fibroblast; [3]): 1; Growth Rate (Fibroblast; [7]): 1
COc1ccc2c(c1)O[C@H](c1ccc(OC)c(OC)c1)C[C@@H]2NC(=O)C1(c2ccc3c(c2)OC(F)(F)O3)CC1 [A-1596584] | 0 | – | 1 | 1 | 1 | 1 | 0 | 0 | 0 | 0 | – | 0 | – | 1 | 1 | 1 | 0 | 0 | 0 | 0 | Growth Rate (U2OS; [9]): 0; Growth Rate (Fibroblast; [7]): 0
CC1=C2C[C@H]3[C@@H](CC=C4C[C@@H](O)CC[C@@]43C)[C@@H]2CC[C@]12O[C@@H]1C[C@H](C)CN[C@H]1[C@H]2C [CYCLOPAMINE] | 0 | – | – | – | 1 | 0 | 0 | 0 | 0 | 0 | – | 0 | – | 0 | 0 | 0 | 0 | 1 | 1 | – | Growth Rate (U2OS; [9]): 1; Growth Rate (Fibroblast; [2]): 1; Growth Rate (Fibroblast; [3]): 1
COc1cc(N2CCC(O)CC2)ccc1Nc1cc(Nc2ccccc2S(=O)(=O)C(C)C)c2cc[nH]c2n1 | – | 1 | 1 | 1 | 1 | – | 0 | 0 | 0 | 0 | – | 1 | 1 | – | – | – | – | 0 | – | 1 | Growth Rate (U2OS; [7]): 0; Growth Rate (Fibroblast; [2]): 0; Growth Rate (Fibroblast; [9]): 1; Growth Rate (Fibroblast; [7]): 1
C[C@H]1C[C@H]2[C@@H]3CCC4=CC(=O)C=C[C@]4(C)[C@@]3(Cl)[C@@H](O)C[C@]2(C)[C@@]1(O)C(=O)CO [BECLOMETHASONE] | 0 | – | 1 | 1 | 1 | 0 | 1 | 1 | 1 | 1 | 0 | 0 | 0 | – | – | – | 0 | – | – | – | Growth Rate (HEK-293T; [8]): 0; Growth Rate (HEK-293T; [9]): 0; Growth Rate (HEK-293T; [10]): 0
COc1ncc(F)cc1CNc1ccc(Cc2c[nH]c3ncc(C)cc23)c(F)n1 [PLX-5622] | – | 0 | 0 | 0 | 0 | 0 | 1 | 1 | 1 | 1 | 0 | – | 0 | 1 | 0 | 0 | – | – | 1 | 1 | Growth Rate (U2OS; [2]): 0; Growth Rate (Fibroblast; [2]): 1; Growth Rate (Fibroblast; [3]): 1; Growth Rate (Fibroblast; [9]): 0
OCCn1cc(-c2ccc3c(c2)CCC3=NO)c(-c2ccncc2)n1 | 1 | 1 | 1 | 1 | 1 | 0 | – | 1 | 0 | 0 | 1 | 0 | 1 | 1 | 1 | 1 | – | 0 | 0 | – | Growth Rate (HEK-293T; [10]): 1; Growth Rate (Fibroblast; [9]): 0
C/C(=N\NC(=O)[C@@H]1C(=O)NC[C@H]1c1ccccc1)c1cccc(Br)c1 | 0 | 0 | 1 | 0 | 0 | 1 | 0 | 0 | 0 | 0 | – | 1 | – | 0 | 0 | 1 | – | – | – | 0 | Growth Rate (U2OS; [9]): 0; Growth Rate (Fibroblast; [3]): 0; Growth Rate (Fibroblast; [7]): 0
CN(CCOc1ccc(CC2SC(=O)NC2=O)cc1)c1ccccn1 (stereo not drawn) [ROSIGLITAZONE] | 0 | 0 | 1 | 1 | 1 | 1 | 1 | 1 | 1 | 1 | 0 | 0 | 0 | 1 | 1 | 1 | 1 | – | 0 | 0 | Growth Rate (HEK-293T; [8]): 0; Growth Rate (HEK-293T; [9]): 0; Growth Rate (HEK-293T; [10]): 0; Growth Rate (Fibroblast; [9]): 0
